From ChEMBL document CHEMBL1154073, “Combining selectivity and affinity predictions using an integrated Support Vector Machine (SVM) approach: An alternative tool to discriminate between the human adenosine A(2A) and A(3) receptor pyrazolo-triazolo-pyrimidine antagonists binding sites” (Bioorg Med Chem, 2009)

What was measured:
Adenosine receptor A1 = target: T1, Adenosine receptor A1 (Homo sapiens, UniProt P30542); experiment: Displacement of [3H]CCPA from human adenosine A1 receptor expressed in CHO cells; format: cell-based
T1 sequence (P30542 whole entry): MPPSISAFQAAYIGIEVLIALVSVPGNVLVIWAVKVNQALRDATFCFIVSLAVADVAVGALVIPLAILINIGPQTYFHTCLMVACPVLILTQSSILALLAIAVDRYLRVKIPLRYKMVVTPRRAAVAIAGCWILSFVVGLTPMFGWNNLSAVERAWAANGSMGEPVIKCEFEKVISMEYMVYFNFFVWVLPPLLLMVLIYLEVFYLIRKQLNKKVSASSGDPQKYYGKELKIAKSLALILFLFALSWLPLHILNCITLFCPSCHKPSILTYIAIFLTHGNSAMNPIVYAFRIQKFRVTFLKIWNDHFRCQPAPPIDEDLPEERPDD

Adenosine receptor A2a = Adenosine receptor A2a (Homo sapiens, UniProt P29274); experiment: biochemical
Description: Displacement of [3H]NECA from human adenosine A2A receptor expressed in CHO cells

Adenosine receptor A3 = target: T2, Adenosine receptor A3 (Homo sapiens, UniProt P0DMS8); experiment: Displacement of [3H]NECA from human adenosine A3 receptor expressed in CHO cells; format: cell-based
T2 sequence (P0DMS8 whole entry): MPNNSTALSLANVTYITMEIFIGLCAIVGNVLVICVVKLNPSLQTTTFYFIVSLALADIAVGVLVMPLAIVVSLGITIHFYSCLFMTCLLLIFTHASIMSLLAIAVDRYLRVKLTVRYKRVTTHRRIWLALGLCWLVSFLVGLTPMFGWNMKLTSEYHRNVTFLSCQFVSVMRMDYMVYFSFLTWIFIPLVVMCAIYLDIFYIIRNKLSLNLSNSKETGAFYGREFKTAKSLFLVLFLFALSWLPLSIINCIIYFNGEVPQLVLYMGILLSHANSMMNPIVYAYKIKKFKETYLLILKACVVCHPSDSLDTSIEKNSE

Adenosine receptor A2b = target: T3, Adenosine receptor A2b (Homo sapiens, UniProt P29275); experiment: Antagonist activity at human adenosine A2B receptor expressed in CHO cells assessed as inhibition of NECA-induced adenylyl cyclase activity; format: functional, cell-based
T3 sequence (P29275 whole entry): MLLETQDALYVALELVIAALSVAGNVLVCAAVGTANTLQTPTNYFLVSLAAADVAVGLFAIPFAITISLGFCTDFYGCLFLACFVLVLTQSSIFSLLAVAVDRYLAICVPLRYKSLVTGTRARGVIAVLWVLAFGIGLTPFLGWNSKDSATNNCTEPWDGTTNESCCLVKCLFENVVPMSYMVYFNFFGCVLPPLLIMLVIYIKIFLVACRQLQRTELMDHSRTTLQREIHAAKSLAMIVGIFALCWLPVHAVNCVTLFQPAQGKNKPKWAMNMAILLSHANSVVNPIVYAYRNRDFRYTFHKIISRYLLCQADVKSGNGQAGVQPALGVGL

Chain of Adenosine receptor A2a (P29274 whole entry): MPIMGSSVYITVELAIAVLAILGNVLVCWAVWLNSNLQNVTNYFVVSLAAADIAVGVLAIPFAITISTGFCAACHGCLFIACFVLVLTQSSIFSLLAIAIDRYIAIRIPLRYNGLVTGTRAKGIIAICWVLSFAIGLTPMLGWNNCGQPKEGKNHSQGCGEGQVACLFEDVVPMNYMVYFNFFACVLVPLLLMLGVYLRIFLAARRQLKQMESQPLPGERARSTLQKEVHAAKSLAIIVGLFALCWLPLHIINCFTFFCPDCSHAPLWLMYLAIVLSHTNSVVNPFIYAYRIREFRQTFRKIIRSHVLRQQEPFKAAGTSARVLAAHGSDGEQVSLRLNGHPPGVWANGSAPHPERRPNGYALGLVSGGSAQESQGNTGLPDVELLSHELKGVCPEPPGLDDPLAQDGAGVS

Row | Ki (Adenosine receptor A1) [nM] | Ki (Adenosine receptor A2a) [nM] | Ki (Adenosine receptor A3) [nM] | IC50 (Adenosine receptor A2b) [µM] | Compound
1 | 1850 | 156 | 12.7 | > 50 | Cn1cc2c(nc(NC(=O)Cc3ccc(Cl)cc3)n3nc(-c4ccco4)nc23)n1
2 | 410 | 30.5 | 1.94 | 8.96 | Cn1cc2c(nc(NC(=O)Cc3cccc(Cl)c3)n3nc(-c4ccco4)nc23)n1
3 | 133 | 62.5 | 0.95 | > 10 | COc1ccc(CC(=O)Nc2nc3nn(C)cc3c3nc(-c4ccco4)nn23)cc1
4 | 51.8 | 3.69 | 116 | 5.06 | CC(C)CCn1cc2c(nc(NC(=O)Cc3ccc(F)cc3)n3nc(-c4ccco4)nc23)n1
5 | 154 | 23 | 765 | 9.37 | CCn1cc2c(nc(NC(=O)Cc3ccsc3)n3nc(-c4ccco4)nc23)n1
6 | 139 | 216 | 0.25 | 0.363 | Cn1cc2c(nc(NC(=O)C(c3ccccc3)c3ccccc3)n3nc(-c4ccco4)nc23)n1
7 | 129 | 114 | 1.2 | 0.78 | CCCCn1cc2c(nc(NC(=O)C(c3ccccc3)c3ccccc3)n3nc(-c4ccco4)nc23)n1
8 | 13.7 | 1.86 | 273 | 1.39 | CC(C)CCn1cc2c(nc(NC(=O)Cc3cccc(Cl)c3)n3nc(-c4ccco4)nc23)n1
9 | 115 | 53.1 | 6.49 | 5.84 | O=C(Nc1nc2nn(CCc3ccccc3)cc2c2nc(-c3ccco3)nn12)C(c1ccccc1)c1ccccc1
10 | 160 | 7.99 | 95.9 | 5.37 | CCCn1cc2c(nc(NC(=O)Cc3ccc4ccccc4c3)n3nc(-c4ccco4)nc23)n1
11 | 1460 | 193 | 11.2 | > 10 | Cn1cc2c(nc(NC(=O)Cc3ccc(-c4ccccc4)cc3)n3nc(-c4ccco4)nc23)n1
12 | 381 | 39.6 | 189 | 8.63 | CCCCn1cc2c(nc(NC(=O)Cc3ccc(-c4ccccc4)cc3)n3nc(-c4ccco4)nc23)n1
13 | 48.2 | 5.43 | 266 | 5.48 | CC(C)CCn1cc2c(nc(NC(=O)Cc3ccc(C(F)(F)F)cc3)n3nc(-c4ccco4)nc23)n1
14 | 84.3 | 46.9 | 125 | 11.1 | O=C(Cc1ccc(-c2ccccc2)cc1)Nc1nc2nn(CCc3ccccc3)cc2c2nc(-c3ccco3)nn12
15 | 768 | 75.9 | 1.22 | > 10 | Cn1cc2c(nc(NC(=O)Cc3ccc(C(F)(F)F)cc3)n3nc(-c4ccco4)nc23)n1
16 | 726 | 211 | 58.5 | > 50 | O=C(Cc1ccc(F)cc1)Nc1nc2nn(CCCc3ccccc3)cc2c2nc(-c3ccco3)nn12
17 | 596 | 74.6 | 3.05 | > 50 | CCn1cc2c(nc(NC(=O)Cc3cccc4ccccc34)n3nc(-c4ccco4)nc23)n1
18 | 57.5 | 42.1 | 180 | > 50 | O=C(Cc1ccc2ccccc2c1)Nc1nc2nn(CCc3ccccc3)cc2c2nc(-c3ccco3)nn12
19 | 307 | 326 | 12.6 | > 10 | O=C(Nc1nc2nn(CCCc3ccccc3)cc2c2nc(-c3ccco3)nn12)C(c1ccccc1)c1ccccc1
20 | 148 | 15.9 | 196 | 15 | CCn1cc2c(nc(NC(=O)Cc3cccs3)n3nc(-c4ccco4)nc23)n1
21 | 190 | 77.5 | 14.5 | > 10 | Cn1cc2c(nc(NC(=O)Cc3ccc4ccccc4c3)n3nc(-c4ccco4)nc23)n1
22 | 121 | 18.7 | 207 | 1.44 | CC(C)CCn1cc2c(nc(NC(=O)Cc3c(Cl)cccc3Cl)n3nc(-c4ccco4)nc23)n1
23 | 22.6 | 2.75 | 56.5 | 1.22 | CC(C)CCn1cc2c(nc(NC(=O)Cc3ccc(Cl)cc3)n3nc(-c4ccco4)nc23)n1
24 | 461 | 31.3 | 1.25 | 13.7 | Cn1cc2c(nc(NC(=O)Cc3ccsc3)n3nc(-c4ccco4)nc23)n1
25 | 241 | 73.6 | 717 | > 50 | O=C(Cc1ccc2ccccc2c1)Nc1nc2nn(CCCc3ccccc3)cc2c2nc(-c3ccco3)nn12
26 | 185 | 18.4 | 36.3 | 10.4 | CCn1cc2c(nc(NC(=O)Cc3ccc4ccccc4c3)n3nc(-c4ccco4)nc23)n1
27 | 70.1 | 4.15 | 99.8 | 1.81 | CCCCn1cc2c(nc(NC(=O)Cc3cccs3)n3nc(-c4ccco4)nc23)n1
